Experimental data reported in patent US12247045B2, “MAP4K4 inhibitors” (Imperial College Innovations Limited, priority 2018, dated 2025).
Where two headings read alike, the source gives them in different places.

Key:
Format in all cases: biochemical
ABL1 = ABL1 (Homo sapiens, UniProt P00519); assay: Kinase selectivity panel, ABL1; conditions: for fold selectivity MAP4K4 over ABL1: in favour of MAP4K4; for IC50: read-out: pIC50 ABL1 (converted)
From the text: (§1) The data in Table 42 also provides the fold selectivity of the two compounds in favour of MAP4K4 over the tested kinase. The fold selectivity is indicated in parenthesis.

MLK1/MAP3K9 = MLK1/MAP3K9 (Homo sapiens, UniProt P80192); assay: Kinase selectivity panel, MLK1/MAP3K9; conditions: for fold selectivity MAP4K4 over MLK1/MAP3K9: in favour of MAP4K4; for IC50: read-out: pIC50 MLK1/MAP3K9 (converted)
From the text: as §1

TNIK/MAP4K7 = TNIK/MAP4K7 (Homo sapiens, UniProt Q9UKE5); assay: Kinase selectivity panel, TNIK/MAP4K7; conditions: read-out: pIC50 TNIK/MAP4K7 (converted)
From the text: as §1

GLK/MAP4K3 = molecular target: T1, GLK/MAP4K3 (Homo sapiens, UniProt Q8IVH8); assay: Kinase selectivity panel, GLK/MAP4K3; conditions: for fold selectivity MAP4K4 over GLK/MAP4K3: in favour of MAP4K4; for IC50: read-out: pIC50 GLK/MAP4K3 (converted)
T1 sequence (Q8IVH8 1-894): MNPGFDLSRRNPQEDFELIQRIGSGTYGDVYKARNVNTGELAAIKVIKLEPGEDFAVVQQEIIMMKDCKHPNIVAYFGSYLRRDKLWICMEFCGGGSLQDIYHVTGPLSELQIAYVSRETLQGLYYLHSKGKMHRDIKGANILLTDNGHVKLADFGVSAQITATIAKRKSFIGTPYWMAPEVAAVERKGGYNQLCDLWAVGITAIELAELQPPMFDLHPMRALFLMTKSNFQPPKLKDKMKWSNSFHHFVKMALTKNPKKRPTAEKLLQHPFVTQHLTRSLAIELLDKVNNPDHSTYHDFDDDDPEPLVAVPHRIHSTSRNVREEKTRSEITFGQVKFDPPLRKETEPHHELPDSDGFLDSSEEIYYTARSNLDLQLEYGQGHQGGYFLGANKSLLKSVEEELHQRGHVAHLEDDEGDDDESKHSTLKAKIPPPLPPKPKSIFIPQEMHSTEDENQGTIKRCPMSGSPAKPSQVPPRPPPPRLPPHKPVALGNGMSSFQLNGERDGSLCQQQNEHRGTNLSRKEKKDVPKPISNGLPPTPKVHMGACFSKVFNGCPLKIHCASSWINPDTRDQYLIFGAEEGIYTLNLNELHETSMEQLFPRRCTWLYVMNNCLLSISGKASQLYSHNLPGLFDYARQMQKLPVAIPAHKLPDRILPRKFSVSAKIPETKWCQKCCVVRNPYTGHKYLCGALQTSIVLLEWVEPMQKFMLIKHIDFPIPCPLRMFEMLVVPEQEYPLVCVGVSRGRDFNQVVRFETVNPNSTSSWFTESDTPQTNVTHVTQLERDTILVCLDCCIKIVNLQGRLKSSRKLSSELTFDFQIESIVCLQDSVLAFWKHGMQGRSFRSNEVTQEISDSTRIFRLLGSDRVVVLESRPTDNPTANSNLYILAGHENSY
From the text: as §1

GCK/MAP4K2 = molecular target: T2, GCK/MAP4K2 (Homo sapiens, UniProt Q12851); assay: Kinase selectivity panel, GCK/MAP4K2; conditions: for fold selectivity MAP4K4 over GCK/MAP4K2: in favour of MAP4K4; for IC50: read-out: pIC50 GCK/MAP4K2 (converted)
T2 sequence (Q12851 1-820): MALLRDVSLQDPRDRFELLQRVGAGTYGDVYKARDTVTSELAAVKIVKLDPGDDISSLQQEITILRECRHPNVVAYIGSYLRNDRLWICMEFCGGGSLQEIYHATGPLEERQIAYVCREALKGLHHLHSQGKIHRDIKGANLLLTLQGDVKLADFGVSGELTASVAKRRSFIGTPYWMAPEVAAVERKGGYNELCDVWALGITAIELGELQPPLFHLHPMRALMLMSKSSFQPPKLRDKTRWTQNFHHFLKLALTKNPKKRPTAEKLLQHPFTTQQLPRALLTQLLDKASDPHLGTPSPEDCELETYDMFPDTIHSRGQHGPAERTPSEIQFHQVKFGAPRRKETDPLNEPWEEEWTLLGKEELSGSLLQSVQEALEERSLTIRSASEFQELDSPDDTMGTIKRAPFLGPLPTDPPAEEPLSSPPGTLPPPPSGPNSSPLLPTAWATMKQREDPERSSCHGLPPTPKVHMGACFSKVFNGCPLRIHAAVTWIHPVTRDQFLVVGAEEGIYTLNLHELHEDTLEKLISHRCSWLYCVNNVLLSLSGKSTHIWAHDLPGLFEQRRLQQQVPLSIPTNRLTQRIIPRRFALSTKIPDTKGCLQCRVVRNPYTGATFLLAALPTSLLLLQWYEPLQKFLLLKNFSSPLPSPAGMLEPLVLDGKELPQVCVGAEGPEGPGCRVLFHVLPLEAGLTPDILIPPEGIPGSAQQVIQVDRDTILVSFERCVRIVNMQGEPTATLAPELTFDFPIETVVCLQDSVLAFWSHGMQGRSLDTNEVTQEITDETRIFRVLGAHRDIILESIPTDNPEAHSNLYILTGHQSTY
From the text: as §1

MLK3/MAP3K11 = MLK3/MAP3K11 (Homo sapiens, UniProt Q16584); assay: Kinase selectivity panel, MLK3/MAP3K11; conditions: for fold selectivity MAP4K4 over MLK3/MAP3K11: in favour of MAP4K4; for IC50: read-out: pIC50 MLK3/MAP3K11 (converted)
From the text: as §1

NUAK1 = molecular target: T3, NUAK1 (Homo sapiens, UniProt O60285); assay: Kinase selectivity panel, NUAK1; conditions: for fold selectivity MAP4K4 over NUAK1: in favour of MAP4K4; for IC50: read-out: pIC50 NUAK1 (converted)
T3 sequence (O60285 1-661): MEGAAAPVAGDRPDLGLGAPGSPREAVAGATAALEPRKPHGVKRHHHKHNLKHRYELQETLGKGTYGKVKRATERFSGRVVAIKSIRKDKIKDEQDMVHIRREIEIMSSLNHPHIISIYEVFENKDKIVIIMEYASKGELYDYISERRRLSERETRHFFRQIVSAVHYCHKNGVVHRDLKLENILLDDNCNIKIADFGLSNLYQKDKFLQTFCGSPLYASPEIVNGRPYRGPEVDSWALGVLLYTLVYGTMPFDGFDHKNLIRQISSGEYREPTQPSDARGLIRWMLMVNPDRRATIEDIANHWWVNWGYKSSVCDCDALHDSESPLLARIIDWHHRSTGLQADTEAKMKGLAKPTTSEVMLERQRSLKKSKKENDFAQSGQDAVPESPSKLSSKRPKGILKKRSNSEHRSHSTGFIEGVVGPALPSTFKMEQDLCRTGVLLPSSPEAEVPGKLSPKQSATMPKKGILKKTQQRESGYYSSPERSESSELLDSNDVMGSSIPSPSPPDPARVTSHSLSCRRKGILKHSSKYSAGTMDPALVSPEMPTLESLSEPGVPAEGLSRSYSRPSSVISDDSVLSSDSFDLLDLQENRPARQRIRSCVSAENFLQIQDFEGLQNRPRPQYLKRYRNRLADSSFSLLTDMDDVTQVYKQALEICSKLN
From the text: as §1

MINK1/MAP4K6 = MINK1/MAP4K6 (Homo sapiens, UniProt Q8N4C8); assay: Kinase selectivity panel, MINK1/MAP4K6; conditions: read-out: pIC50 MINK1/MAP4K6 (converted)
From the text: as §1

KHS/MAP4K5 = KHS/MAP4K5 (Homo sapiens, UniProt Q9Y4K4); assay: Kinase selectivity panel, KHS/MAP4K5; conditions: for fold selectivity MAP4K4 over KHS/MAP4K5: in favour of MAP4K4; for IC50: read-out: pIC50 KHS/MAP4K5 (converted)
From the text: as §1

[1] = molecular target: T4, human MAP4K4 kinase domain (Homo sapiens, UniProt O95819); assay: MAP4K4 kinase activity, CisBio HTRF Transcreener ADP assay
T4 construct: 0.5 nM human MAP4K4 kinase domain (Invitrogen); purchased Invitrogen
From the text: Compounds of the present invention were screened for their inhibitory activity against MAP4K4, versus selected off-target hits found with early members of this chemical series. MAP4K4 kinase activity was monitored using the CisBio HTRF Transcreener ADP assay, a competitive immunoassay with a reproducible Z′>0.6. In the detection step, endogenous ADP and d2-labeled ADP compete for binding an anti-ADP monoclonal antibody labelled with Eu^3+ cryptate. A ratiometric fluorescent read-out is used at 665 and 620 nm. Reactions were performed in the presence of 1% DMSO with ATP added at Km (10 μM), 0.5 nM human MAP4K4 kinase domain (Invitrogen), 1 μM biotin-myelin basic protein as substrate (Invitrogen), and extension of reaction time to 2 h. Assays were run in Greiner low volume plates with a final reaction volume of 10 μl. The MAP4K4 inhibition data are provided in Table 41 below for selected compounds of the present invention. The data has been categorised based on the IC50 value of the compound as “A”, “B” or “C”. IC50: A≤100 nM; 100 nM<B≤1 μM; 1 μM<C; nd=not determined.

Aurora B = Aurora B (Homo sapiens, UniProt Q96GD4); assay: Kinase selectivity panel, Aurora B
From the text: as §1

[2] = IC50 category, ATP at Km (10 μM), 0.5 nM kinase domain, 2 h, read-out: MAP4K4
[3] = read-out: pIC50 MAP4K4 (converted)

MLK1/MAP3K9, sequence (P80192 whole entry): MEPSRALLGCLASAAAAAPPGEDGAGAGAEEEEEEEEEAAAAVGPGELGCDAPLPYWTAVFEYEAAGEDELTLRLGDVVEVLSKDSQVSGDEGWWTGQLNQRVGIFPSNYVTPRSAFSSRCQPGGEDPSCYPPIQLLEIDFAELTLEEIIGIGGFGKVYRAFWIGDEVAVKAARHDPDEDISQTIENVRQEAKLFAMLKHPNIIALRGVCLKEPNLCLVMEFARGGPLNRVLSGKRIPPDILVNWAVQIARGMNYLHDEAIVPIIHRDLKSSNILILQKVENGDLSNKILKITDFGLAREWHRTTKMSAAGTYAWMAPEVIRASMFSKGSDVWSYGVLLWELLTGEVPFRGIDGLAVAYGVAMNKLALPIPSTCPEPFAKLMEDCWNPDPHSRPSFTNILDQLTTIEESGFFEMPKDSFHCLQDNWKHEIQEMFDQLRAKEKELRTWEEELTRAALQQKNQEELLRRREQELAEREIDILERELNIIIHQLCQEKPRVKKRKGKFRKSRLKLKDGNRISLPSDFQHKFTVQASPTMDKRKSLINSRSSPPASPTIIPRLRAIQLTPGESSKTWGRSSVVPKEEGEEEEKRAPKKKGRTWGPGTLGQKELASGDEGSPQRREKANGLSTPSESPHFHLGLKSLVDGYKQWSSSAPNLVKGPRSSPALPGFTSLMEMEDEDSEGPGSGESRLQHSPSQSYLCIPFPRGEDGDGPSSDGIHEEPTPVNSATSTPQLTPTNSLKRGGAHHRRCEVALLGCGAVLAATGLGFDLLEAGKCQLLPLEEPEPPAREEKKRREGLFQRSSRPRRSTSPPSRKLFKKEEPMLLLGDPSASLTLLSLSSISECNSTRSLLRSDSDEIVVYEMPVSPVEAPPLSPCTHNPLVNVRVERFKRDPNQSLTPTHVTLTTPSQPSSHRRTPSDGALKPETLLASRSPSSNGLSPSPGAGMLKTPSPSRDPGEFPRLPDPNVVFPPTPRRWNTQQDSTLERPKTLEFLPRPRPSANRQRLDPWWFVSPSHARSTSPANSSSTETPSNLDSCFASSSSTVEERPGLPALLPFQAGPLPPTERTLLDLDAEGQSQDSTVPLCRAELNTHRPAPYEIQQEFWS
KHS/MAP4K5, sequence (Q9Y4K4 whole entry): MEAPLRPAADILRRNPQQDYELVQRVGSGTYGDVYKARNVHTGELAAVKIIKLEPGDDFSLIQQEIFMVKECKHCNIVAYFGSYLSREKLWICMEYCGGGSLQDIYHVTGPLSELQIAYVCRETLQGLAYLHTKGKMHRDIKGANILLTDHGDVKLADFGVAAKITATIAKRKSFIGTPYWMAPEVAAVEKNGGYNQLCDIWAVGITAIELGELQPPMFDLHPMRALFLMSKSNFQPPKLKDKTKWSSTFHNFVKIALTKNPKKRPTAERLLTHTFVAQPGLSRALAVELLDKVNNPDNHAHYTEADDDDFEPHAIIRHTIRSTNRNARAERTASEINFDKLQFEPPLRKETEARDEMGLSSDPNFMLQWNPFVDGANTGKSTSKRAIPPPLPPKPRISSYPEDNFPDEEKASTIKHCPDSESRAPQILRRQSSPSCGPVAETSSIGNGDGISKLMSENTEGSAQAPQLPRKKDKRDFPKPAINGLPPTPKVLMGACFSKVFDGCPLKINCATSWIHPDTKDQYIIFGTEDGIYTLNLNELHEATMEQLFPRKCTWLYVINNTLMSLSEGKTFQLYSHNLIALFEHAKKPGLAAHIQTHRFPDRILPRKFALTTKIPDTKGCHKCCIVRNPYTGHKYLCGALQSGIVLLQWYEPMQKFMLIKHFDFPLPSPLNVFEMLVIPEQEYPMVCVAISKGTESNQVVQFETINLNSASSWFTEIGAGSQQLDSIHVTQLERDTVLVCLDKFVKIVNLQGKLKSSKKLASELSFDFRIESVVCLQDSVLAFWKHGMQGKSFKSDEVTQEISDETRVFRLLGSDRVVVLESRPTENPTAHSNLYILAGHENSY
T4 sequence (O95819 25-289 limits assumed): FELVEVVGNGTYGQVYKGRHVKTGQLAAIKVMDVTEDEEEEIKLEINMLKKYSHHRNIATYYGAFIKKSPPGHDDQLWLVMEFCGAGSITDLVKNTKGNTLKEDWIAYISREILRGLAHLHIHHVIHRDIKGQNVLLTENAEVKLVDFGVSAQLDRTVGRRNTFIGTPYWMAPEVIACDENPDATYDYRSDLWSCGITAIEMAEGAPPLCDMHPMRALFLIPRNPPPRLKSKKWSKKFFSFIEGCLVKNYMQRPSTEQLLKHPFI
ABL1, sequence (P00519 whole entry, species assumed): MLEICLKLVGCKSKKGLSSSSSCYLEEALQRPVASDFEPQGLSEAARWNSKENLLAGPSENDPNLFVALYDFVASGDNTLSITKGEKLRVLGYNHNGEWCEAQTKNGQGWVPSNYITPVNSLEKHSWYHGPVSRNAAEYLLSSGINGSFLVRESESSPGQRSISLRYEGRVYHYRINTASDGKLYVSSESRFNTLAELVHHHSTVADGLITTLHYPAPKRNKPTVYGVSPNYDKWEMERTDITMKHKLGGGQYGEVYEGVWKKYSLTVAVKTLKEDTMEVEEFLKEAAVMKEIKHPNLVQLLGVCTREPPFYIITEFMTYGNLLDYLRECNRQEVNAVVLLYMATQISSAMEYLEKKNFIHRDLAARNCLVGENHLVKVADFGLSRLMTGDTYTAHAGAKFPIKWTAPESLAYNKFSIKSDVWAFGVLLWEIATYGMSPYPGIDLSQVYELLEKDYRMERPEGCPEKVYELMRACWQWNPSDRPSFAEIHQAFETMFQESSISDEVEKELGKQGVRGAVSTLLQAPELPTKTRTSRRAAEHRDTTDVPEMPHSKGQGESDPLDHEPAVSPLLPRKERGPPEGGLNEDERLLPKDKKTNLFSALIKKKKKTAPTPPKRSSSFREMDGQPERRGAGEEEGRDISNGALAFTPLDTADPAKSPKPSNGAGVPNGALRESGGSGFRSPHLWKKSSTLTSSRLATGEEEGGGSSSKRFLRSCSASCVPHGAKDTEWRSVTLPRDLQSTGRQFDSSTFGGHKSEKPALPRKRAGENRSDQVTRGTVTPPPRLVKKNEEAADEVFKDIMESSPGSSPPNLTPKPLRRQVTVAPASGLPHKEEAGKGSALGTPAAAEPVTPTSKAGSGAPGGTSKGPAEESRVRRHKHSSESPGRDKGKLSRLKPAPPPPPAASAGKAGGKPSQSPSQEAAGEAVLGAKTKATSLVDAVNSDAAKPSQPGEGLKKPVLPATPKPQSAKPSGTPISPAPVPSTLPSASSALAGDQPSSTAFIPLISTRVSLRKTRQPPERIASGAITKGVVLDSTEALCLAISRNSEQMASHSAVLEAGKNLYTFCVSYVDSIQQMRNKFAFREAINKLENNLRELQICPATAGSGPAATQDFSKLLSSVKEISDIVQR
MLK3/MAP3K11, sequence (Q16584 whole entry): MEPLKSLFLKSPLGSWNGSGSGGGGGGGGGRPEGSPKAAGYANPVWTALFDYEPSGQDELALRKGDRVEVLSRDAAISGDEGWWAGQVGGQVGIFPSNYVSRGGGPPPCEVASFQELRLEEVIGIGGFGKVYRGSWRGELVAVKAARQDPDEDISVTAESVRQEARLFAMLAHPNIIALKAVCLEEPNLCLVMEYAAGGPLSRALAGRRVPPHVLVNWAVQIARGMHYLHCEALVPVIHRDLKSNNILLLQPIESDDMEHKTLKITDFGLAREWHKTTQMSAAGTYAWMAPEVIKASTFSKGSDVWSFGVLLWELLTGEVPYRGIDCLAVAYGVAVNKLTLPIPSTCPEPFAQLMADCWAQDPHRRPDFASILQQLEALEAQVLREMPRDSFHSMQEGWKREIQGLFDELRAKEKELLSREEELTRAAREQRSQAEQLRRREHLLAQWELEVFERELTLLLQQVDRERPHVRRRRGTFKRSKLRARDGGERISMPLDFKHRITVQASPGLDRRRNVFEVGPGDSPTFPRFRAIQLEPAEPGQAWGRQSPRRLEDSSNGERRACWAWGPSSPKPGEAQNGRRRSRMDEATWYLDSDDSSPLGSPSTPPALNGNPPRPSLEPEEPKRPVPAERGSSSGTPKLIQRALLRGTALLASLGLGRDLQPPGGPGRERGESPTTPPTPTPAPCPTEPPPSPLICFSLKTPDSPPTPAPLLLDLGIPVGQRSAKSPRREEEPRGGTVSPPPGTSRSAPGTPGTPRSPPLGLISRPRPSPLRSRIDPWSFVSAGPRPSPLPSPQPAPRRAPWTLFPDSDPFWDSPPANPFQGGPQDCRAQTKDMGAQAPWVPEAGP
Aurora B, sequence (Q96GD4 whole entry): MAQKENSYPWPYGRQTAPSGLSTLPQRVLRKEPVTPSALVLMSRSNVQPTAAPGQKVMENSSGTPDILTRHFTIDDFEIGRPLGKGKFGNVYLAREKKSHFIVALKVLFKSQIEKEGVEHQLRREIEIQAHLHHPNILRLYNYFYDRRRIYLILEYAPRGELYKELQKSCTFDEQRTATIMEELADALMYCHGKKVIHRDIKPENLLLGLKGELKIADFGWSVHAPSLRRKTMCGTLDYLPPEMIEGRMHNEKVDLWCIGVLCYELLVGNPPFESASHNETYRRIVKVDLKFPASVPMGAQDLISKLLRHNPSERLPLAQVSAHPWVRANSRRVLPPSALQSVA

fold selectivity MAP4K4 over ABL1 (ABL1)	IC50 (ABL1) [µM]	fold selectivity MAP4K4 over MLK1/MAP3K9 (MLK1/MAP3K9)	IC50 (MLK1/MAP3K9) [µM]	IC50 (TNIK/MAP4K7) [µM]	fold selectivity MAP4K4 over GLK/MAP4K3 (GLK/MAP4K3)	IC50 (GLK/MAP4K3) [µM]	fold selectivity MAP4K4 over GCK/MAP4K2 (GCK/MAP4K2)	IC50 (GCK/MAP4K2) [µM]	fold selectivity MAP4K4 over MLK3/MAP3K11 (MLK3/MAP3K11)	IC50 (MLK3/MAP3K11) [µM]	fold selectivity MAP4K4 over NUAK1 (NUAK1)	IC50 (NUAK1) [µM]	IC50 (MINK1/MAP4K6) [µM]	fold selectivity MAP4K4 over KHS/MAP4K5 (KHS/MAP4K5)	IC50 (KHS/MAP4K5) [µM]	IC50 [1, 2] [µM]	IC50 [1, 3] [µM]	fold selectivity MAP4K4 over Aurora B (Aurora B; in favour of MAP4K4)	IC50 (Aurora B; read-out: pIC50 Aurora B (converted)) [µM]	Compound
(126) fold	3.98	(100) fold	3.16	0.0501	(50) fold	1.58	(5) fold	0.158	(13) fold	0.398	(4) fold	0.126	0.0316	(6) fold	0.2	≤ 0.1	0.0316			O=c1[nH]cnc2c1c(-c1ccc(OCC(O)CN3CCOCC3)cc1)cn2-c1cccnc1 (stereo not drawn) [Ex-54]
(>1000) fold	31.6			0.2	(1000) fold	25.1	(79) fold	2	(63) fold	1.58	(50) fold	1.26		(63) fold	1.58	≤ 0.1	0.0251			COCCOc1ccc(-c2cn(-c3cccnc3)c3nc[nH]c(=O)c23)cc1 [Ex-67]
		(8) fold	0.126	0.316			(16) fold	0.501	(1) fold	0.0316	(3) fold	0.1	0.0631			≤ 0.1	0.0316			O=c1[nH]cnc2c1c(-c1cnn(C3COC3)c1)cn2-c1ccccc1 [Ex-26]
		(5) fold	0.0794	0.02			(31) fold	0.501	(5) fold	0.0794	(13) fold	0.2	0.01			≤ 0.1	0.0158			O=c1[nH]cnc2c1c(-c1cnn(CCO)c1)cn2-c1ccccc1 [Ex-27]
(501) fold	6.31	(398) fold	5.01	0.0501			(79) fold	1	(79) fold	1	(251) fold	3.16	0.0316	(63) fold	0.794	≤ 0.1	0.0126	(501) fold	6.31	COCCOc1ccc(-c2cn(-c3ccncc3)c3nc[nH]c(=O)c23)cc1 [Ex-28]
